Reference: patent US7612080B2, “GTPase inhibitors and use thereof for controlling platelet hyperactivity” (Cincinnati Children's Hospital Medical Center, priority 2004, dated 2009)

Experiments:
[1] = biological target: PDZ-RhoGEF-stimulated mantGDP/GTP exchange of RhoA (Homo sapiens, UniProt P61586); assay: In vitro guanine nucleotide exchange assay (mant-GDP), RhoA/PDZ-RhoGEF; format: biochemical; conditions: 200 μM compound
PC-3 cells [2] = assay: Anchorage independent growth in soft agar
[3] = biological target: T1, RhoA binding to PDZ-RhoGEF (Homo sapiens, UniProt P61586); assay: Complex formation assay, RhoA with PDZ-RhoGEF
T1 construct: made in house; host or cells: Cos-7 cells (PDZ-RhoGEF, used as lysate)
Experimental: Trio and Tiam-1 co-precipitate with GST-Rac1, but not GST or GST-Cdc42.
After an incubation at 4° C. for 30 minutes, the beads associated (His)6-TrioN were detected by anti-His Western blotting. The blots were quantified by densitometry analysis. The results are representative of three measurements. […] The association of Rac1 with Tiam1 was examined by anti-His blot after anti-myc immunoprecipitation. […] The RhoA associated PDZ-RhoGEF was probed with anti-AU antibody after affinity precipitation by glutathione agarose beads.

PC-3 cells [4] = assay: Matrigel cell invasion assay; conditions: 25 μM compound, 24 hrs
Experimental: Cell invasion assays. The cell invasion assays are performed using 6.4-mm Biocoat Matrigel invasion chambers with 8.0-micron pore size PET membrane (Becton-Dickinson) according to the manufactory instructions. Briefly, 5×10^4 cells are resuspended in 0.5 ml of serum free culture medium and added to the upper chamber. 10% fetal bovine serum in the culture medium is used as a chemo-attractant in the lower chamber. After the cells are incubated for overnight, the number of cell passed through the Matrigel is counted.
Cells invaded through Matrigel matrix were visualized with Giemasa staining.

platelets = assay: Platelet adhesion, secretion and aggregation elicited by agonists; format: cell-based, mouse and human; conditions: induced by ADP, PLC, U46619, collagen, thrombin, or phorbol ester
From the text: In the studies disclosed hereinbelow, a dual approach of genetic targeting of Rac GTPases in mice and specific pharmacological inhibition of Rac GTPases in both mouse and human platelets was used to establish the central role of Rac GTPases in platelet function.
Treatment of mice with Compound NCI23766, Formula IV. […] This process was described above in the Experimental section of this document.

endogenous RhoA = biological target: T2, endogenous RhoA (Mus musculus, UniProt Q9QUI0); assay: Endogenous Rho GTPase activity assay (GST-Rhotekin pull-down), RhoA in NIH 3T3 cells; format: cell-based; conditions: 10% serum
T2 construct: endogenous in cells; host or cells: NIH 3T3 fibroblasts

NIH 3T3 cells = assay: Cell growth assay of wild type, L61Rac1- or GEF-expressing NIH 3T3 cells; format: cell-based; conditions: 100 μM compound
From the text: The cells were split in triplicate in 6-well plates at a density of 5×10^4 cells per well. […] The foci numbers of the respective cells were quantified 14 days after transfection. […] The number and the morphology of the colonies were examined under a microscope.
Due to their ability to directly activate Rho GTPases, Db1 family GEFs are potent stimulators of cell proliferation.

PC-3 cells [5] = assay: PC-3 cell proliferation (CellTiter 96 AQueous assay); conditions: 5% calf serum, indicated concentrations
Experimental: Cell growth assay. […] The growth rate of the prostate PC-3 cells is measured by the CellTiter 96 AQueous assay (Promega). 1,500 cells/well in 200 μl of 5% FBS medium are plated in 96-well plates and are grown under normal conditions. Cultures are assayed in 0, 1, 2, 3, 4, or 5 days by the addition of 20 μl of the combined MTS/PMS solution followed by incubation for one hour at 37° C. Absorbency is measured at a wavelength of 490 nm on an automated microplate reader.
The cells were split in triplicate in 96-wells at 1.5×10^3 cells per well. Cell numbers were assayed by using CellTiter 96 AQueous cell proliferation assay kit in different days.

Swiss3T3 cells = assay: Immunofluorescence of PDGF-stimulated lamellipodia formation; conditions: 100 μM compound, 10 nM PDGF
Experimental: Immunofluorescence. […] The cellular actin is stained with TRITC-labeled phalloidin (Sigma) at 10 μg/ml in PBS for 40 min at room temperature. The actin and cell morphological changes are visualized by fluorescence microscopy.
The cells were fixed and stained with Rhodamine-labeled phalloidin.

T2 sequence (Q9QUI0 whole entry): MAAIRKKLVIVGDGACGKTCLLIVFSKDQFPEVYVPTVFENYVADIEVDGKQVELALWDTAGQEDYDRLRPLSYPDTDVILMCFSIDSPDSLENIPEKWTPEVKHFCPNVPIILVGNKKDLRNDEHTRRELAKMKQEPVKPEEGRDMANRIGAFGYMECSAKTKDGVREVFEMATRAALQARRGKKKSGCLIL
Chain of PDZ-RhoGEF-stimulated mantGDP/GTP exchange of RhoA (P61586 whole entry): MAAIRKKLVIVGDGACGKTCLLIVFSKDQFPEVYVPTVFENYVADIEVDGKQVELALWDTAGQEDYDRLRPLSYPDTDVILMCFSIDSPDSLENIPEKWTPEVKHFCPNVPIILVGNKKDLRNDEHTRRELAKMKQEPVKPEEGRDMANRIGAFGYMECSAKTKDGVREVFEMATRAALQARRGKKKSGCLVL
T1 sequence (P61586 whole entry): as above

CCN(CC)CCCC(C)Nc1nc(C)cc(Nc2ccc3nc(C)cc(N)c3c2)n1 (racemic) [Compound NCI23766, N6-(2-((4-(diethylamino)-1-methylbutyl)amino)-6-methyl-4-pyrimidinyl)-2-methyl-4,6-quinolinediamine]
effect on PDZ-RhoGEF-stimulated mantGDP/GTP exchange of RhoA [1]: little impact
size of colonies of treated cells versus untreated (PC-3 cells [2]): much smaller
colony-forming activities remaining (PC-3 cells [2]; 25 μM compound): Approximately 10%
colony-forming activities remaining (PC-3 cells [2]; 50 μM compound): ~1%
interference with RhoA binding to PDZ-RhoGEF [3]: does not interfere
PC-3 cell invasion (PC-3 cells [4]): significantly inhibits
platelet adhesion (platelets): worked remarkably in inhibiting
platelet aggregation (platelets): worked remarkably in inhibiting
platelet secretion (platelets): worked remarkably in inhibiting
level of RhoA-GTP in cells (endogenous RhoA): slightly increased level
growth of wild type NIH 3T3 cells (NIH 3T3 cells; 5% serum): slow the growth
growth rate of Rac1L61 expressing cells (NIH 3T3 cells; 5% serum): no effect
cell growth induced by the Rac specific GEF Trio (NIH 3T3 cells; NIH 3T3, 5% serum): capable of inhibiting
proliferation rates of PC-3 cells (PC-3 cells [5]): inhibited by Compound NCI23766 in a dose dependent manner
PDGF induction of lamellipodia at the cell edges (Swiss3T3 cells; 5 min): only marginally effective
PDGF induction of lamellipodia at the cell edges (Swiss3T3 cells; 10 min): completely ineffective
